According to patent US9393228B2, “Combination of a slow sodium current blocker and a sinus If current inhibitor, and the pharmaceutical compositions containing said combination” (PIERRE FABRE MEDICAMENT, priority 2013, dated 2016):
Where a name gives a salt, the structure may show the parent alone.

Tested on: anesthetized rabbits
Test: ST segment elevation by occlusion of the circumflex coronary artery in anesthetized rabbits (anti-ischemic activity, with blood pressure and heart rate)
Assay type: in vivo, rabbit
Details: for Heart rate / Mean blood pressure: 5 minutes after i.v. administration; for Heart rate / Mean blood pressure / effect on heart rate (in words): compound B 0.63 mg/kg; for effect on ST segment elevation (in words): i.v. slow bolus, compound A 0.04 mg/kg or compound B 0.63 mg/kg, 5 min before 5 min circumflex occlusion
Description: The anti-ischemic activity of 3-(R)-[3-(2-methoxyphenylthio)-2-(S)-methyl-propyl]amino-3,4-dihydro-2H-1,5-benzoxathiepine combined with ivabradine was evaluated in a model of ST segment elevation by occlusion of the circumflex coronary artery in anesthetized rabbits.
Male rabbits (2.2-2.5 kg) are anesthetized with pentobarbital. A catheter is placed in a carotid artery in order to continuously measure the animal's blood pressure. Blood samples are taken in order to regularly check blood gases and to modify ventilation parameters as needed. The compounds to be tested or the carriers are administered via a catheter placed in an ear vein. An electrocardiogram is recorded, also continuously, in configuration II in order to determine the variations of amplitude of the ST segment. The animal's thorax is opened and a ligature is placed around the left coronary artery (circumflex) in order to induce regional myocardial ischemia (Verscheure et al., 1995). After a period of stabilization of all hemodynamic parameters, the compounds are administered in a slow bolus (1 minute). Five minutes after the compounds are administered, the circumflex artery is occluded for 5 minutes and then the ligature is released. The heart is removed and the risk area (ligatured region of the circumflex artery) is evaluated. Four groups of rabbits are studied: • group receiving carrier: 40% polyethylene 300, 60% physiological saline; • group receiving 3-(R)-[3-(2-methoxyphenylthio)-2-(S)-methyl-propyl]amino-3,4-dihydro-2H-1,5-benzoxathiepine (compound A) at a dose of 0.04 mg/kg; • group receiving ivabradine hydrochloride (compound B) at a dose of 0.63 mg/kg; • group receiving compound A (0.04 mg/kg)+compound B (0.63 mg/kg).
The doses were selected in order to have submaximal pharmacological activities and thus to uncover potential additive or synergistic effects.

Row | Structure (SMILES) | Heart rate (compound A 0.04 mg/kg) [bpm] | Mean blood pressure (compound A 0.04 mg/kg) [mmHg] | effect on ST segment elevation (in words) | effect on blood pressure (in words) (i.v., compound A 0.04 mg/kg) | effect on heart rate (in words) (i.v., compound A 0.04 mg/kg)
1 | COc1ccccc1SC[C@@H](C)CN[C@@H]1COc2ccccc2SC1 [Compound A, 3-(R)-[3-(2-methoxyphenylthio)-2-(S)-methyl-propyl]amino-3,4-dihydro-2H-1,5-benzoxathiepine] | 275 ± 10 | 92 ± 4 | slight inhibition | without changing | without changing
2 | COc1cc2c(cc1OC)CC(=O)N(CCCN(C)C[C@H]1Cc3cc(OC)c(OC)cc31)CC2 [Compound B, ivabradine hydrochloride, reference compound] | 211 ± 10 | 92 ± 3 | lower ST segment elevation | – | relatively significant and constant bradycardia
